Data as given in patent US9453835B2, “Method for screening a modulator of a TMEM16 family member” (Kyoto University, priority 2012, dated 2016).

Columns and labels:
[1] = tested on: TMEM16D transformants of TMEM16F^−/− IFETs; experiment: Internalization of NBD-PC and NBD-GalCer by TMEM16D transformants; assay type: cell-based, mouse; details: 15° C.
Procedure: (§1) A and C, The ability of TMEM16 family members to internalize NBD-PC and NBD-GalCer. TMEM16F^−/− IFETs transformed with the indicated TMEM16 family member were treated at 15° C. with (+) or without (−) 250 nM A23187 in the presence of 100 nM NBD-PC for 4 min (A) or 250 nM NBD-GalCer for 5 min (C), and the internalized, or BSA-non extractable NBD-PC or NBD-GelCer, was quantified by FACSAria, and expressed in MFI.
B, Requirement of Ca^2+ for the constitutive internalization of NBD-PC by TMEM16D. The TMEM16D transformants of TMEM16F^−/− IFETs were treated with 40 μM BAPTA-AM for 30 min in Ca^2+-free RPMI, and incubated at 15° C. for 8 min in HBSS containing 1 mM CaCl2 and 100 nM NBD-PC. The internalized NBD-PC was determined as above, and expressed as percentage of the internalized NBD-PC obtained without BAPTA-AM treatment.
(§2) Cells (10^6) were stimulated at 15° C. with 250 nM A23187 in 1 ml Hank's Balanced Salt Solution (HBSS) (Gibco, Billings, Mont.) containing 1 mM CaCl2, with a fluorescent probe, 100 nM 1-oleoyl-2-{6-[(7-nitro-2-1,3-benzoxadiazol-4-yl)amino]hexanoyl}-sn-glycero-3-phosphocholine (NBD-PC) (Avanti Polar Lipids, Alabaster, Ala.), or 250 nM N-[6-[(7-nitro-2-1,3-benzoxadiazol-4-yl)amino]hexanoyl]-D-galactosyl-β1-1′-sphingosine (C6-NBD galactosyl ceramide or NBD-GalCer) (Avanti Polar Lipids). Aliquots (150 μl) were mixed with 150 μl HBSS containing 5 mg/ml fatty-acid free BSA (Sigma-Aldrich) and 500 nM Sytoxblue (Molecular Probes, Eugene, Oreg.), and analyzed by FACSAria.

TMEM16F^flox/flox IFETs [2] = experiment: Ca2+-induced PS exposure (Cy5-Annexin V binding, flow cytometry); assay type: cell-based, mouse; details: 20° C., 3.0 μM A23187
Procedure: (§3) A, Ca^2+ ionophore induced PS exposure. TMEM16F^flox/flox and TMEM16F^−/− IFETs were treated at 20° C. with 3.0 μM A23187 in the presence of Cy5-labeled Annexin V. Annexin V-binding to the cells was monitored by flow cytometry for 10 min, and expressed in MFI (mean fluorescence intensity).
(§4) The Ca^2+-induced PS exposure were examined as described (20). In brief, 5×10^5 cells were stimulated at 20° C. with 3.0 μM A23187 in 500 μl of 10 mM Hepes-NaOH buffer (pH 7.4) containing 140 mM NaCl, 2.5 mM CaCl2 and 5 μg/ml Propidium Iodide (PI), and 1000-fold-diluted Cy5-labeled Annexin V (Bio Vision, Milpitas, Calif.), and applied to the injection chamber of a FACSAria (BD Bioscience, Franklin Lakes, N.J.) set at 20° C.

TMEM16F^−/− IFETs = experiment: as above; assay type: cell-based, mouse; details: 20° C., 3.0 μM A23187
Procedure: as §3, §4

TMEM16F^flox/flox IFETs [3] = experiment: Ca2+-induced PE exposure (binding of RO-peptide); assay type: cell-based, mouse; details: data not shown
TMEM16F^flox/flox IFETs [4] = experiment: Internalization of NBD-PC and NBD-GalCer; assay type: cell-based, mouse; details: 15° C., 250 nM A23187
Procedure: B and C, Ca^2+ ionophore induced lipid internalization. TMEM16F^flox/flox and TMEM16F^−/− IFETs were treated at 15° C. with 250 nM A23187 in the presence of 100 nM NBD-PC (B) or 250 nM NBD-GalCer (C). Using aliquots of the reaction mixture, the BSA-non extractable level of NBD-PC or NBD-GalCer in the SytoxBlue-negative population was determined at the indicated time by FACSAria, and expressed in MFI.
as §2

[5] = tested on: IFETs expressing TMEM16A, 16B, 16E, 16H, or 16K; experiment: Internalization of NBD-PC by TMEM16 transformants without scramblase activity; assay type: cell-based, mouse; details: 250 nM A23187
Procedure: as §1, §2

[6] = tested on: IFETs expressing mouse Fas; experiment: FasL-induced apoptosis; assay type: cell-based
Procedure: E-G, FasL-induced apoptosis. Fas-expressing TMEM16F^flox/flox and TMEM16F^−/− IFETs were treated at 37° C. for 2 h with 60 units/ml FasL in the absence or presence of 50 μM Q-VD-OPh. In E, the cells were permeabilized with 90% methanol, and stained with rabbit anti-active caspase 3 followed by incubation with Alexa 488-labeled goat anti-rabbit IgG. In F, cells were stained with Cy5-labeled Annexin V and PI and analyzed by FACSAria. In G, cells were analyzed by FACSAria before and after FasL treatment; the FSC and SSC profiles are shown.
Apoptosis was induced with FasL as described (25). In brief, IFETs expressing mouse Fas were treated with 60 units/ml FasL at 37° C. for 2 h, and PS exposure was determined by flow cytometry with Cy5-Annexin V. To detect activated caspase 3, cells were fixed at 37° C. for 10 min in PBS containing 1% paraformaldehyde, permeabilized with 90% methanol at −20° C., and stained with rabbit mAb against active caspase 3 (Cell Signaling, Danvers, Mass.). Cells were then incubated with Alexa 488-labeled goat anti-rabbit IgG (Invitrogen), and analyzed by FACSAria.

[7] = TMEM16F^flox/flox and TMEM16F^−/− IFETs, to the same extent

Molecule: CC(=O)OCOC(=O)CN(CC(=O)OCOC(C)=O)c1ccccc1OCCOc1ccccc1N(CC(=O)OCOC(C)=O)CC(=O)OCOC(C)=O [BAPTA-AM]
- NBD-PC uptake observed without Ca2+-ionophore ([1]; pre-treatment 40 μM BAPTA-AM 30 min, 100 nM NBD-PC, 8 min): reduced

Molecule: CNc1ccc2oc(C[C@H]3O[C@@]4(CC[C@H]3C)O[C@H]([C@H](C)C(=O)c3ccc[nH]3)[C@H](C)C[C@H]4C)nc2c1C(=O)O [A23187]
- PS exposure (TMEM16F^flox/flox IFETs [2]): quickly exposed PS
- PS exposure (TMEM16F^−/− IFETs): completely absent
- PE-exposure (TMEM16F^flox/flox IFETs [3]): caused rapid PE-exposure
- internalization of NBD-PC and NBD-GalCer (TMEM16F^flox/flox IFETs [4]): internalized NBD-PC and NBD-GalCer
- NBD-PC internalization ([1]; 250 nM A23187, 100 nM NBD-PC, 4 min, versus constitutive uptake): strongly enhanced
- NBD-GalCer uptake ([1]; 250 nM A23187, 250 nM NBD-GalCer, 5 min, versus constitutive uptake): enhanced
- NBD-PC uptake [5]: did not induce

B1: FasL: Leucine-zipper-tagged human FasL produced in COS7 cells (protein)
chain: QIGHPSPPPEKKELRKVAHLTGKSNSRSMPLEWEDTYGIVLLSGVKYKKGGLVINETGLYFVYSKVYFRGQSCNNLPLSHKVYMRNSKYPQDLVMMEGKMMSYCTTGQMWARSSYLGAVFNLTSADHLYVNVSELSLVNFEESQTFFGLYKL
modifications: left off: small tags and cut ends
notes: Leucine-zipper-tagged human FasL produced in COS7 cells
- caspase 3 activation ([6]; 60 units/ml FasL, 37° C., 2 h): efficiently activated
- PS exposure ([6]; 60 units/ml FasL, 37° C., 2 h, Cy5-Annexin V): quickly responded by exposing PS
- cell size (forward-scattered light, FSC) [6, 7]: decreased
- cellular granularity (side-scattered light, SSC) [6, 7]: increased
